US9102675B2, “3-Cyanoaryl-1H-pyrrolo[2,3-B] pyridine derivatives” (MERCK PATENT GMBH, priority 2011, dated 2015)

How the values were obtained:
IKKε = molecular target: T1, IKKε (Homo sapiens, UniProt Q14164); assay: IKKε kinase assay (384-well flashplate assay); type: biochemical; settings: 10 μM ATP, 1 nM IKKε; read-out: IKKε enzyme assay IC50
T1 sequence (Q14164 1-716): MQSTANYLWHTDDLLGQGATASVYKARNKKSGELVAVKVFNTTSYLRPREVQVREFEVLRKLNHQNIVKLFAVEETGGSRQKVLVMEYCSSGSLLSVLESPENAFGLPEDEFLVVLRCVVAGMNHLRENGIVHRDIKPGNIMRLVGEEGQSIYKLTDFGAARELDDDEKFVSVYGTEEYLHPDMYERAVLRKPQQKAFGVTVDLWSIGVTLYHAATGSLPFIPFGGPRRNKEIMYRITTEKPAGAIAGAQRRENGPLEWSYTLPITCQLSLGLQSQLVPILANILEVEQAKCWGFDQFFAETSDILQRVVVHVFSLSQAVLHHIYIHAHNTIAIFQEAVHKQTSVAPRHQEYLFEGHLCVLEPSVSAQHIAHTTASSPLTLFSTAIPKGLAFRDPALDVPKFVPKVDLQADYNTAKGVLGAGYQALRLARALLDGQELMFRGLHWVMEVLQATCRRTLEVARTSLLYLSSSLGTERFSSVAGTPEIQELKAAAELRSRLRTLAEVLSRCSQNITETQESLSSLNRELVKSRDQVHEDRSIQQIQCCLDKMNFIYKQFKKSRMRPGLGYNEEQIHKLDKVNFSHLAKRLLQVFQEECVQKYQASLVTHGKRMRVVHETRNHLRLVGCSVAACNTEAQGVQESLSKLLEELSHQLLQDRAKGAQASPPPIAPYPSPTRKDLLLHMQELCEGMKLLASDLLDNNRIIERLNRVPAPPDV
Protocol: Test for the Inhibition of IKKε
IKKε—Kinase Assay (IKKepsilon)
(§1) The kinase assay is performed as 384-well flashplate assay (for example for Topcount measurement).
1 nM IKKε, 800 nM biotinylated IκKα(19-42) peptide (Biotin-C6-C6-[…]) and 10 μM ATP (spiked with 0.3 μCi of ^33P-ATP/well) are incubated at 30° C. for 2 hours in a total volume of 50 μl (10 mM MOPS, 10 mM Mg acetate, 0.1 mM EGTA, 1 mM dithiothreitol, 0.02% of Brij35, 0.1% of BSA, 0.1% of BioStab, pH 7.5) with or without test compound. The reaction is stopped using 25 μl of 200 mM EDTA. After 30 min at room temperature, the liquid is removed, and each well is washed three times with 100 μl of 0.9% sodium chloride solution. Non-specific reaction is determined in the presence of 3 μM MSC2119074 (BX-795). The radioactivity is measured using a Topcount (Perkin Elmer). The results (for example IC50 values) are calculated using program tools provided by the IT Department (for example AssayExplorer, Symyx).

[1] = molecular target: T2, TANK binding kinase (TBK1) (Homo sapiens, UniProt Q9UHD2); assay: TBK1 enzyme assay (384-well flashplate kinase assay); type: biochemical; settings: 10 μM ATP, 0.6 nM TBK1
T2 sequence (Q9UHD2 1-729): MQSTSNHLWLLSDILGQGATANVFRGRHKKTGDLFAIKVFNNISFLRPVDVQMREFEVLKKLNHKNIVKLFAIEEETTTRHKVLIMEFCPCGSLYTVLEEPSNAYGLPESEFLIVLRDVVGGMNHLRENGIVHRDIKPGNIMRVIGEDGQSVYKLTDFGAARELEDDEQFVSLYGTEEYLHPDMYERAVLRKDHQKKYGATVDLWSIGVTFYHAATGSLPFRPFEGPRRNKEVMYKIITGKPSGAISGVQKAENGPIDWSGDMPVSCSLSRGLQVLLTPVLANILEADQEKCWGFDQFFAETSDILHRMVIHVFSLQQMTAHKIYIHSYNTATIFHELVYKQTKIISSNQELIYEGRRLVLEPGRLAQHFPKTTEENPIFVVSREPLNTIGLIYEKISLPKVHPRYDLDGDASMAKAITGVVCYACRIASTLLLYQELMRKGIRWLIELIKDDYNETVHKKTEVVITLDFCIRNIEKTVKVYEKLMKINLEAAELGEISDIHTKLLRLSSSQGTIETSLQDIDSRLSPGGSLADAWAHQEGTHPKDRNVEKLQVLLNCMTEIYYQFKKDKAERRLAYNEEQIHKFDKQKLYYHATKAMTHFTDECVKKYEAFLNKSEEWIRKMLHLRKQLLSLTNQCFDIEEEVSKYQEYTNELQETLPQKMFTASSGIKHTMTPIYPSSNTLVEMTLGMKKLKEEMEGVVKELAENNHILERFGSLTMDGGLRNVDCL
Protocol: Test for the Inhibition of TBK1
as §1
0.6 nM TANK binding kinase (TBK1), 800 nM biotinylated MELK-derived peptide (biotin-Ah-Ah-[…]) and 10 μM ATP (spiked with 0.25 μCi of ^33P-ATP/well) are incubated at 30° C. for 120 min in a total volume of 50 μl (10 mM MOPS, 10 mM Mg acetate, 0.1 mM EGTA, 1 mM DTT, 0.02% of Brij35, 0.1% of BSA, pH 7.5) with or without test compound. The reaction is stopped with 25 μl of 200 mM EDTA. After 30 min at room temperature, the liquid is removed, and each well is washed three times with 100 μl of 0.9% sodium chloride solution. Non-specific reaction is measured in the presence of 100 nM staurosporine. The radioactivity is measured in a Topcount (PerkinElmer). The results (for example IC50 values) are calculated using program tools provided by the IT Department (for example Assay-Explorer, Symyx). Cell Test

Row | SMILES | IC50 (IKKε) | IC50 [1]
1 | Cn1cc(-c2cnc3[nH]cc(-c4ccc(OC5COC5)c(C#N)c4)c3c2)cn1 [Compound A31, 5-[5-(1-methyl-1H-pyrazol-4-yl)-1H-pyrrolo[2,3-b]pyridin-3-yl]-2-(oxetan-3-yloxy)benzonitrile] | < 300 nM | < 300 nM
2 | Cn1cc(-c2cnc3[nH]cc(-c4ccc(OCC5(C)COC5)c(C#N)c4)c3c2)cn1 [Compound A32, 2-(3-methyloxetan-3-ylmethoxy)-5-[5-(1-methyl-1H-pyrazol-4-yl)-1H-pyrrolo[2,3-b]pyridin-3-yl]benzonitrile] | < 300 nM | < 300 nM
3 | N#Cc1cc(-c2c[nH]c3ncc(-c4cnn(CCN5CCCC5)c4)cc23)cnc1OC1CCOCC1 [Compound A33, 5-{5-[1-(2-Pyrrolidin-1-ylethyl)-1H-pyrazol-4-yl]-1H-pyrrolo[2,3-b]pyridin-3-yl}-2-(tetrahydropyran-4-yl-oxy)nicotinonitrile] | < 300 nM | < 300 nM
4 | N#Cc1cc(-c2c[nH]c3ncc(-c4cnn(C5COC5)c4)cc23)ccc1OC1COC1 [Compound A34, 2-(oxetan-3-yloxy)-5-[5-(1-oxetan-3-yl-1H-pyrazol-4-yl)-1H-pyrrolo-[2,3-b]pyridin-3-yl]benzonitrile] | < 300 nM | < 300 nM
5 | CC1(COc2ccc(-c3c[nH]c4ncc(-c5cnn(C6COC6)c5)cc34)cc2C#N)COC1 [Compound A35, 2-(3-methyloxetan-3-ylmethoxy)-5-[5-(1-oxetan-3-yl-1H-pyrazol-4-yl)-1H-pyrrolo[2,3-b]-pyridin-3-yl]benzonitrile] | < 300 nM | < 300 nM
6 | CC1(COc2ccc(-c3c[nH]c4ncc(-c5cn[nH]c5)cc34)cc2C#N)COC1 [Compound A36, 2-(3-methyloxetan-3-ylmethoxy)-5-[5-(1H-pyrazol-4-yl)-1H-pyrrolo[2,3-b]pyridin-3-yl]benzonitrile] | < 300 nM | < 300 nM
7 | N#Cc1cc(-c2c[nH]c3ncc(-c4cnn(C5COC5)c4)cc23)cnc1OC1CCOCC1 [Compound A37, 5-[5-(1-Oxetan-3-yl-1H-pyrazol-4-yl)-1H-pyrrolo-[2,3-b]pyridin-3-yl]-2-(tetrahydropyran-4-yloxy)-nicotinonitrile] | < 300 nM | < 300 nM
8 | COCCn1cc(-c2cnc3[nH]cc(-c4cnc(OC5CCOCC5)c(C#N)c4)c3c2)cn1 [Compound A38, 5-{5-[1-(2-Methoxyethyl)-1H-pyrazol-4-yl]-1H-pyrrolo-[2,3-b]pyridin-3-yl}-2-(tetrahydropyran-4-yloxy)-nicotinonitrile] | < 300 nM | < 300 nM
